The text below walks through data of the supplement of paper PMC11208160.

This data set can be described thus: recombinant UMI read abundance after kanamycin selection (control-corrected) (log10(CPM+1)); higher = more efficient recombination; extreme values may be limits of the assay; sequences stand for … in AGTGCAGAGAAAATCGGCCAGTTTTCTCTGCCTGCAGTCCGCATGCCGTGGGACCCCTTGGGTTCTAACCTGTTGCCTAGATTTATGCAGCGGACTGCCTTTCTCCCAAAGTGATAAACCGG…AGGTTGGTTTCACT; site = the 11-nt donor. The gist of the method:
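After plating on IPTG (0.07 mM) plus kanamycin, or unselected, in two replicates, recombinant UMIs were PCR-amplified across the donor–target junction and sequenced. The cells were Escherichia coli co-electroporated with a UMI-tagged donor and donor-binding-loop pair library and a target plasmid with a fixed target and T7-inducible IS621 bridge recombinase. Values are log10(CPM+1), with CPM averaged over replicates and scaled by control-derived factors.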
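Further: IS621 bridge recombinase in Escherichia coli cells against a fixed T5 target plasmid.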

Turning to “CGTAGATCATGGACCGGTTTTCCCGGTAATCCGTATTTGCA (site CGTAGATCTTG)”, the “recombinant UMI read abundance (log10)” value worked out at 2.44. With “CGTAGTCCATGGACCGGTTTTCCCGGTAATCCGTATTTGTT (site CGGAATCCTAA)”, the “recombinant UMI read abundance (log10)” value is 0. The value for “CGTAGTCCATGGACCGGTTTTCCCGGTAATCCGTATTTGTT (site CGTAGTCCTAA)” was 0.247; that for “CGTATACCATGGACCGGTTTTCCCGGTAATCCGTATTTGAA (site CGTATACCTTT)” was 0.0161. The value for “CGTATGGCATGGACCGGTTTTCCCGGTAATCCGTATTTGTG (site CGTATGGCTCA)” was 1.33; that for “CGTATGTCATGGACCGGTTTTCCCGGTAATCCGTATTTGGT (site CGTATGTCTAC)” was 1.59.

For the sequence “CGTATTCCATGGACCGGTTTTCCCGGTAATCCGTATTTGTG (site CGTATTCCTCA)”, the “recombinant UMI read abundance (log10)” value was 0.0112. In the case of “CGTCACTCATGGACCGGTTTTCCCGGTAATCCGTATTTGGC (site CGTCACTCTGC)” it was 2.8; in that of “CGTCCAACATGGACCGGTTTTCCCGGTAATCCGTATTTGTA (site AGTCCAACTTA)”, 0.00336; in that of “CGTCCAACATGGACCGGTTTTCCCGGTAATCCGTATTTGTA (site CGTCCAACTTA)”, 1.61. The value for “CGTCCAACATGGACCGGTTTTCCCGGTAATCCGTATTTGTA (site GGTCCAACTTA)” was 0.0127; that for “CGTCCAACATGGACCGGTTTTCCCGGTAATCCGTATTTGTA (site TGTCCAACTTA)” was 0.0409; that for “CGTCTAGCATGGACCGGTTTTCCCGGTAATCCGTATTTGGC (site CGTCTAGCTGC)” was 2.07. In the case of “CGTCTCACATGGACCGGTTTTCCCGGTAATCCGTATTTGGT (site CGTCTCACTAC)” it was 1.62; in that of “CGTCTTACATGGACCGGTTTTCCCGGTAATCCGTATTTGTA (site CGTCTTACTTA)”, 0.00853.

For “CGTGGAACATGGACCGGTTTTCCCGGTAATCCGTATTTGCT (site CGTGGAACTAA)”, the “recombinant UMI read abundance (log10)” value was 0.202. The value for “CGTGGAACATGGACCGGTTTTCCCGGTAATCCGTATTTGCT (site CGTGGAACTAC)” was 0.00778; that for “CGTGGAACATGGACCGGTTTTCCCGGTAATCCGTATTTGCT (site CGTGGAACTAG)” was 2.18. In the case of “CGTGGAACATGGACCGGTTTTCCCGGTAATCCGTATTTGCT (site CGTGGAACTAT)” it was 0.45. In the case of “CGTGGAACATGGACCGGTTTTCCCGGTAATCCGTATTTGTA (site CGTGGAACTAA)” it was 0.00446; in that of “CGTGGAACATGGACCGGTTTTCCCGGTAATCCGTATTTGTA (site CGTGGAACTCA)”, 0.0215. Consider “CGTGGAACATGGACCGGTTTTCCCGGTAATCCGTATTTGTA (site CGTGGAACTGA)”, for which the “recombinant UMI read abundance (log10)” value is 0. In the case of “CGTGGAACATGGACCGGTTTTCCCGGTAATCCGTATTTGTA (site CGTGGAACTTA)” it was 2.24. In the case of “CGTGTTACATGGACCGGTTTTCCCGGTAATCCGTATTTGAT (site CGTGTTACTAT)” it was 0.962; in that of “CGTTAAACATGGACCGGTTTTCCCGGTAATCCGTATTTGAG (site CGTTAAACTCT)”, 1.31; in that of “CGTTAAACATGGACCGGTTTTCCCGGTAATCCGTATTTGAG (site CGTTACACTCT)”, 0. The value for “CGTTAAACATGGACCGGTTTTCCCGGTAATCCGTATTTGAG (site CGTTAGACTCT)” was 0.00692; that for “CGTTAAACATGGACCGGTTTTCCCGGTAATCCGTATTTGAG (site CGTTATACTCT)” was 0.01. Consider “CGTTAGACATGGACCGGTTTTCCCGGTAATCCGTATTTGAA (site CGTTAGACTAT)”, for which the “recombinant UMI read abundance (log10)” value amounted to 0.0102. In the case of “CGTTAGACATGGACCGGTTTTCCCGGTAATCCGTATTTGAA (site CGTTAGACTCT)” it was 0.00762; in that of “CGTTAGACATGGACCGGTTTTCCCGGTAATCCGTATTTGAA (site CGTTAGACTGT)”, 0; in that of “CGTTAGACATGGACCGGTTTTCCCGGTAATCCGTATTTGAA (site CGTTAGACTTT)”, 1.33. In the case of “CGTTAGGCATGGACCGGTTTTCCCGGTAATCCGTATTTGCT (site CGTTAGGCTAG)” it was 0.924; in that of “CGTTAGGCATGGACCGGTTTTCCCGGTAATCCGTATTTGCT (site CGTTCGGCTAG)”, 0.00474.
